Assay results from the supplement of paper PMC11451515.

Test system: NOMO1
Test: cell viability relative to DMSO control; higher = less cytotoxic
Conditions: 48 h
Outline: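 Library compounds in DMSO were pin-dosed into 1536-well plates (5 μl) holding NOMO1 or SEM (500 cells/well) or P12-Ichikawa (1000 cells/well) leukemia cells, across an 11-point threefold series of 47 μM to 0.79 nM. Each cell line had been adapted for at least four passages in each medium. CellTiter-Glo One luminescence was read after 48 h at 37°C. Viability is the per-plate percentage relative to DMSO wells, with cell-free wells as background.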

[1] = HPLM + 10% dialyzed FBS, 0.000781 µM
[2] = HPLM + 10% dialyzed FBS, 0.00234 µM
[3] = HPLM + 10% dialyzed FBS, 0.00702 µM
[4] = HPLM + 10% dialyzed FBS, 0.0211 µM
[5] = HPLM + 10% dialyzed FBS, 0.0632 µM
[6] = HPLM + 10% dialyzed FBS, 0.19 µM
[7] = HPLM + 10% dialyzed FBS, 0.569 µM
[8] = HPLM + 10% dialyzed FBS, 1.71 µM
[9] = HPLM + 10% dialyzed FBS, 5.12 µM
[10] = HPLM + 10% dialyzed FBS, 15.4 µM
[11] = HPLM + 10% dialyzed FBS, 46.1 µM
[12] = RPMI 5 mM glucose + 10% FBS, 0.000781 µM
[13] = RPMI 5 mM glucose + 10% FBS, 0.00234 µM
[14] = RPMI 5 mM glucose + 10% FBS, 0.00702 µM
[15] = RPMI 5 mM glucose + 10% FBS, 0.0211 µM
[16] = RPMI 5 mM glucose + 10% FBS, 0.0632 µM
[17] = RPMI 5 mM glucose + 10% FBS, 0.19 µM
[18] = RPMI 5 mM glucose + 10% FBS, 0.569 µM
[19] = RPMI 5 mM glucose + 10% FBS, 1.71 µM
[20] = RPMI 5 mM glucose + 10% FBS, 5.12 µM
[21] = RPMI 5 mM glucose + 10% FBS, 15.4 µM
[22] = RPMI 5 mM glucose + 10% FBS, 46.1 µM
[23] = RPMI 5 mM glucose + 10% dialyzed FBS, 0.000781 µM
[24] = RPMI 5 mM glucose + 10% dialyzed FBS, 0.00234 µM
[25] = RPMI 5 mM glucose + 10% dialyzed FBS, 0.00702 µM
[26] = RPMI 5 mM glucose + 10% dialyzed FBS, 0.0211 µM
[27] = RPMI 5 mM glucose + 10% dialyzed FBS, 0.0632 µM
[28] = RPMI 5 mM glucose + 10% dialyzed FBS, 0.19 µM
[29] = RPMI 5 mM glucose + 10% dialyzed FBS, 0.569 µM
[30] = RPMI 5 mM glucose + 10% dialyzed FBS, 1.71 µM
[31] = RPMI 5 mM glucose + 10% dialyzed FBS, 5.12 µM
[32] = RPMI 5 mM glucose + 10% dialyzed FBS, 15.4 µM
[33] = RPMI 5 mM glucose + 10% dialyzed FBS, 46.1 µM

SMILES	cell viability [1] [%]	cell viability [2] [%]	cell viability [3] [%]	cell viability [4] [%]	cell viability [5] [%]	cell viability [6] [%]	cell viability [7] [%]	cell viability [8] [%]	cell viability [9] [%]	cell viability [10] [%]	cell viability [11] [%]	cell viability [12] [%]	cell viability [13] [%]	cell viability [14] [%]	cell viability [15] [%]	cell viability [16] [%]	cell viability [17] [%]	cell viability [18] [%]	cell viability [19] [%]	cell viability [20] [%]	cell viability [21] [%]	cell viability [22] [%]	cell viability [23] [%]	cell viability [24] [%]	cell viability [25] [%]	cell viability [26] [%]	cell viability [27] [%]	cell viability [28] [%]	cell viability [29] [%]	cell viability [30] [%]	cell viability [31] [%]	cell viability [32] [%]	cell viability [33] [%]
c1ccc(-c2oc3ncnc(NC[C@@H]4CCCO4)c3c2-c2ccccc2)cc1	114	113	134	113	134	128	123	126	112	103	62	102	110	112	114	120	120	117	109	110	112	63.8											
OCCC#Cc1nc(-c2ccc(F)cc2)c(-c2ccncc2)n1CCCc1ccccc1												119	122	122	135	127	138	150	136	128	132	116											
CN1CCN(CCCN2c3ccccc3Sc3ccc(C(F)(F)F)cc32)CC1	105	106	112	117	108	115	125	95.4	32.9	20.6	24.2	100	104	108	101	96.2	98.5	106	61.5	18.7	16.7	11.3	99.6	107	105	108	119	113	103	104	27.2	25.6	21
N#C[C@H](O[C@@H]1O[C@H](CO[C@@H]2O[C@H](CO)[C@@H](O)[C@H](O)[C@H]2O)[C@@H](O)[C@H](O)[C@H]1O)c1ccccc1	108	96.9	120	115	99.1	102	100	96.6	103	95.9	19.5	90.5	117	104	89.4	97.3	93.5	96.3	84.5	93.4	85.1	16	106	110	103	115	109	96.2	101	97.6	98.1	88.8	9.62
OC[C@H]1O[C@@H](Oc2cc(O)cc(/C=C/c3ccc(O)cc3)c2)[C@H](O)[C@@H](O)[C@@H]1O	85.6	116	107	128	115	111	99.4	74.8	63.1	58.8	45	102	99.2	111	121	104	106	98.1	91.5	84.2	63.2	63.3	85.6	92.4	88.3	98.4	109	108	103	84.7	51.9	52.7	76.5
CN1CCN(C(=O)O[C@H]2c3nccnc3C(=O)N2c2ccc(Cl)cn2)CC1	115	102	119	114	114	112	114	101	91.1	98.4	88.1	94.8	99.2	92.4	106	103	99.4	99.4	97.9	99.3	93.8	84.6	97.6	107	103	94.2	99.1	97	105	97.2	97	88.5	78.5
OCCn1cc(-c2cnc3nnn(Cc4ccc5ncccc5c4)c3n2)cn1	106	104	123	110	102	118	92.2	103	92.1	89.7	63.2	99.4	110	112	99.9	93.2	116	110	107	102	105	96.5	93.3	105	103	112	105	91.7	97.1	103	86.8	80.6	82.2
COc1cc(C)c(Sc2cnc(NC(=O)c3ccc(CNC(C)C(C)C)cc3)s2)cc1C(=O)N1CCN(C(C)=O)CC1 (configuration not stated)												117	119	128	131	117	126	134	108	105	107	126											
CN(C)CCN1C(=O)c2cccc3cc(N)cc(c23)C1=O	116	122	118	125	118	147	118	123	93.7	72.3	26.7	93.3	108	135	108	121	121	132	102	105	59.3	13.1	99.2	110	108	111	118	118	111	108	97.3	73.6	23.9
O=C1NC(=O)/C(=C/c2ccc(-c3ccc(F)cc3O)o2)S1	106	126	125	130	127	114	125	91.8	103	82.7	72.9	113	108	104	114	112	105	103	94.7	95.7	92.7	84.9	112	117	114	103	113	116	91.6	93.9	91.7	75.8	66.9
N[S+](=O)([O-])OC[C@@H]1C[C@@H](n2ccc3c(N[C@H]4CCc5ccccc54)ncnc32)C[C@@H]1O	103	118	114	111	110	107	70.8	26.6	16.6	14.3	18.7	96.2	110	92.4	113	118	92.6	57.7	12.4	10.8	8.04	8.01	111	97.4	104	104	121	103	59.8	26.7	18.5	13	10.8
CON(C)C(=O)N1/N=C(S[C@@]1(CCCN)C2=CC=CC=C2)/C3=CC(=CC=C3F)F	119	113	117	87.5	34.4	35.8	38.6	38.1	24.6	36.3	21.6	115	114	133	69.4	23.8	32.3	22.3	27.6	23	25.3	21.1											
CCOc1ccc(Cc2cc([C@@H]3O[C@H](CO)[C@@H](O)[C@H](O)[C@H]3O)ccc2Cl)cc1												114	133	124	125	138	128	128	136	124	133	129											
NC/1=N/C(=O)N(/C=N1)[C@@H]2O[C@H](CO)[C@@H](O)[C@H]2O	108	108	111	101	106	115	108	100	94.8	65.8	21.2	100	109	91.5	93.6	99.9	106	96.9	90.6	81.3	52.7	20.7	110	112	106	110	116	111	109	91.6	72.6	32.6	14.6
CC(O)C1C2C(C)\C(=C(/N2C1=O)C(O)=O)SC3CNC(C3)C(=O)N(C)C (configuration not stated)	75.7	78.3	85.5	94.8	99	82.5	87.7	97.5	82.8	81.7	88.7	86.1	84.1	85.2	89.1	81.7	84.4	82.5	81.6	82.8	88.4	86.3	68.1	73.9	72.6	84.1	84.2	86.2	85.6	88.4	82.6	91.5	91
